Patent US11053213B2, “Pharmaceutical compounds” (ALMAC DISCOVERY LIMITED, priority 2016, dated 2021)

target: USP19 (Homo sapiens (Human), UniProt O94966); test: USP19 activity assay (fluorescence polarisation, Ubiquitin-Lys-TAMRA substrate); format: biochemical; conditions: full-length USP19 2.5 nM, 30 min pre-incubation, Ub substrate 500 nM; average of at least two duplicate experiments
Sequence (O94966 whole entry): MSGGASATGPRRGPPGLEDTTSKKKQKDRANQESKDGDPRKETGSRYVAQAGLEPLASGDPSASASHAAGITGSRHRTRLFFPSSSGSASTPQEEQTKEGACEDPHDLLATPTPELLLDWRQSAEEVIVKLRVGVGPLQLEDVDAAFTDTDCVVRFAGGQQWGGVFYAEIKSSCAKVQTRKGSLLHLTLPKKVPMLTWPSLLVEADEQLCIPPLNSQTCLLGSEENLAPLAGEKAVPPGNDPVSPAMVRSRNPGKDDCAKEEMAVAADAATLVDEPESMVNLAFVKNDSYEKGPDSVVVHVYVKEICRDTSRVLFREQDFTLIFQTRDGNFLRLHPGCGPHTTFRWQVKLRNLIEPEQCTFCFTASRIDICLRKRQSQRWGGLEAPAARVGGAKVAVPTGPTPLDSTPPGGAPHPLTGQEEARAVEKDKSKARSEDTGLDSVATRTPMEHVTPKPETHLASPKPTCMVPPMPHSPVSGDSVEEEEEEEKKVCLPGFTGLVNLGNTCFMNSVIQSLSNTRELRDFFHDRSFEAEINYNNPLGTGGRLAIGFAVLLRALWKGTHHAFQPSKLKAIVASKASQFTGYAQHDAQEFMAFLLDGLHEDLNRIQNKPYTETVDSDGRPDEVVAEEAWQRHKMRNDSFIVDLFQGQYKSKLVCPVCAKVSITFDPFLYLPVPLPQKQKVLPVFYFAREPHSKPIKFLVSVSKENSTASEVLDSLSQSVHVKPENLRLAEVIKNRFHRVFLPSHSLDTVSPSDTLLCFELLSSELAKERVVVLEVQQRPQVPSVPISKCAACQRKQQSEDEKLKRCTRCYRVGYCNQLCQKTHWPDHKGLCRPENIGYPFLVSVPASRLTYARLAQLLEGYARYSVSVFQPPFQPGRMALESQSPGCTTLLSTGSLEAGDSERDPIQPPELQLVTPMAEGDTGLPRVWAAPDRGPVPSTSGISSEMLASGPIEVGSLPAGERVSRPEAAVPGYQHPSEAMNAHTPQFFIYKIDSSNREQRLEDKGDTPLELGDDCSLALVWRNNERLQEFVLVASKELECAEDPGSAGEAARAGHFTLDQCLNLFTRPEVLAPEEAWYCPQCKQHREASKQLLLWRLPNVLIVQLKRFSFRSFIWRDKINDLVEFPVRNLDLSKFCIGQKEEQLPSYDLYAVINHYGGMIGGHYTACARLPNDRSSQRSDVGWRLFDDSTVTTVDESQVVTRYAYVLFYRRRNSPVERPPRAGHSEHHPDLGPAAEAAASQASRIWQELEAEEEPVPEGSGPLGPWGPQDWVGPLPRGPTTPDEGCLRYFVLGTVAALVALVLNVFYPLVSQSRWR

| Compound | IC50 [µM] |
| --- | --- |
| C[C@H](CC1CCCCC1)C(=O)N1C[C@H]2CC[C@@H](C1)C2(O)Cn1cnc(-c2ccccc2F)cc1=O (stereo partly drawn) [Example 31, 3-(((1R,5S)-3-((R)-3-Cyclohexyl-2-methylpropanoyl)-8-hydroxy-3-azabicyclo[3.2.1]octan-8-yl)methyl)-6-(2-fluorophenyl)pyrimidin-4(3H)-one] | 0.5 to 5 |
| C[C@H](CC(=O)N1CCC(O)(Cn2cc(C(=O)N3CCOCC3)c(-c3ccccc3)cc2=O)CC1)c1ccccc1 [Example 77, (R)-1-((4-Hydroxy-1-(3-phenylbutanoyl)piperidin-4-yl)methyl)-5-(morpholine-4-carbonyl)-4-phenylpyridin-2(1H)-one] | 0.5 to 5 |
| CN(C)C(=O)c1cn(CC2(O)CCN(C(=O)c3cc[nH]n3)CC23CCCC3)c(=O)cc1-c1ccccc1 (centres unmarked) [Example 187, 1-((10-Hydroxy-7-(1H-pyrazole-3-carbonyl)-7-azaspiro[4.5]decan-10-yl)methyl)-N,N-dimethyl-6-oxo-4-phenyl-1,6-dihydropyridine-3-carboxamide] | 50 to 250 |
| C[C@H](CC(=O)N1CCC(O)(Cn2ncc(-c3ccccc3)cc2=O)CC1)c1ccccc1 [Example 37, (R)-2-((4-Hydroxy-1-(3-phenylbutanoyl)piperidin-4-yl)methyl)-5-phenylpyridazin-3(2H)-one] | 50 to 250 |
| C[C@H](CC(=O)N1C[C@H]2CC[C@@H](C1)C2(O)Cn1cnc(-c2ccccc2F)cc1=O)c1ccccc1 (some centres unmarked) [Example 60] | 5 to 50 |
| O=C(CCc1ccccc1)N1CCC(O)(Cn2cnc(-c3ccccc3F)cc2=O)CC1 [Example 2, 6-(2-Fluorophenyl)-3-((4-hydroxy-1-(3-phenylpropanoyl)piperidin-4-yl)methyl)pyrimidin-4(3H)-one] | 50 to 250 |
| CN(C)C(=O)c1cn(CC2(O)CCN(C(=O)CCc3ccc(F)cc3)CC23CCCC3)c(=O)cc1-c1ccccc1 (centres unmarked) [Example 184, 1-((7-(3-(4-Fluorophenyl)propanoyl)-10-hydroxy-7-azaspiro[4.5]decan-10-yl)methyl)-N,N-dimethyl-6-oxo-4-phenyl-1,6-dihydropyridine-3-carboxamide] | 0.5 to 5 |
| C[C@H](CC(=O)N1CCC(O)(Cn2cc(C(=O)N(C)C)c(-c3ccccc3)cc2=O)C2(CCCC2)C1)c1ccccc1 (stereo partly drawn) [Example 185, 1-((10-Hydroxy-7-((R)-3-phenylbutanoyl)-7-azaspiro[4.5]decan-10-yl)methyl)-N,N-dimethyl-6-oxo-4-phenyl-1,6-dihydropyridine-3-carboxamide] | 0.5 to 5 |
| CC(C)CC(C)C(=O)N1CCC(O)(Cn2cc(C(=O)N(C)C)c(-c3ccccc3)cc2=O)C2(CCCC2)C1 (centres unmarked) [Example 197] | < 0.5 |
| C[C@H](CC1CCCCC1)C(=O)N1CCC(O)(Cn2cc(C(=O)N(C)C)c(Cl)cc2=O)C2(CCCC2)C1 (stereo partly drawn) [Example 144, 4-chloro-1-((7-((R)-3-cyclohexyl-2-methylpropanoyl)-10-hydroxy-7-azaspiro[4.5]decan-10-yl)methyl)-N,N-dimethyl-6-oxo-1,6-dihydropyridine-3-carboxamide] | < 0.5 |
| C[C@H](CC(=O)N1CCC(O)(Cn2cc(C(=O)NCCO)c(-c3ccccc3)cc2=O)CC1)c1ccccc1 [Example 115, (R)-1-((4-Hydroxy-1-(3-phenylbutanoyl)piperidin-4-yl)methyl)-N-(2-hydroxyethyl)-6-oxo-4-phenyl-1,6-dihydropyridine-3-carboxamide] | 5 to 50 |
| C[C@H](CC1CCCCC1)C(=O)N1CCC(O)(Cn2cc(C(=O)N(C)C)c(-c3ccccc3)cc2=O)C2(CCOCC2)C1 (stereo partly drawn) [Example 234, 1-((2-((R)-3-Cyclohexyl-2-methylpropanoyl)-5-hydroxy-9-oxa-2-azaspiro[5.5]undecan-5-yl)methyl)-N,N-dimethyl-6-oxo-4-phenyl-1,6-dihydropyridine-3-carboxamide] | 0.5 to 5 |
| O=C(C(O)CC1CCCCC1)N1CCC(O)(Cn2cnc(-c3ccccc3F)cc2=O)CC1 (racemic) [Example 44, (R,S)-3-((1-(3-Cyclohexyl-2-hydroxypropanoyl)-4-hydroxypiperidin-4-yl)methyl)-6-(2-fluorophenyl)pyrimidin-4(3H)-one] | 5 to 50 |
| C[C@H](CC(=O)N1CCC(O)(Cn2cc(C(=O)N3CCC(O)CC3)c(-c3ccccc3)cc2=O)CC1)c1ccccc1 [Example 62, (R)-1-((4-Hydroxy-1-(3-phenylbutanoyl)piperidin-4-yl)methyl)-5-(4-hydroxypiperidine-1-carbonyl)-4-phenylpyridin-2(1H)-one] | 0.5 to 5 |
| CC[C@@H](C)C(=O)N1CCC(O)(Cn2cc(C(=O)N(C)C)c(-c3ccccc3)cc2=O)C2(CCCC2)C1 (stereo partly drawn) [Example 148, 1-((10-Hydroxy-7-((R)-2-methylbutanoyl)-7-azaspiro[4.5]decan-10-yl)methyl)-N,N-dimethyl-6-oxo-4-phenyl-1,6-dihydropyridine-3-carboxamide] | 5 to 50 |
| C[C@H](CC1CCCCC1)C(=O)N1CC[C@@](O)(Cn2cc(C(=O)N3CCNCC3)c(-c3ccccc3F)cc2=O)C2(CCCC2)C1 [Example 227, 1-(((S)-7-((R)-3-Cyclohexyl-2-methylpropanoyl)-10-hydroxy-7-azaspiro[4.5]decan-10-yl)methyl)-4-(2-fluorophenyl)-5-(piperazine-1-carbonyl)pyridin-2(1H)-one] | < 0.5 |
| C[C@H](CC1CCCCC1)C(=O)N1CC[C@@](O)(Cn2cc(C(=O)N(C)C)c(C3CC3)cc2=O)C(C)(C)C1 [Example 220, 1-(((S)-1-((R)-3-Cyclohexyl-2-methylpropanoyl)-4-hydroxy-3,3-dimethylpiperidin-4-yl)methyl)-4-cyclopropyl-N,N-dimethyl-6-oxo-1,6-dihydropyridine-3-carboxamide] | 0.5 to 5 |
| Cc1cn(CC2(O)CCN(C(=O)C[C@@H](C)c3ccccc3)CC2)c(=O)cc1-c1ccccc1 [Example 111, (R)-1-((4-Hydroxy-1-(3-phenylbutanoyl)piperidin-4-yl)methyl)-5-methyl-4-phenylpyridin-2(1H)-one] | 50 to 250 |
| CC(C)N(C)C(=O)c1cn(CC2(O)CCN(C(=O)C[C@@H](C)c3ccccc3)CC2)c(=O)cc1-c1ccccc1 [Example 101, (R)-1-((4-Hydroxy-1-(3-phenylbutanoyl)piperidin-4-yl)methyl)-N-isopropyl-N-methyl-6-oxo-4-phenyl-1,6-dihydropyridine-3-carboxamide] | 5 to 50 |
| CN(C)C(=O)c1cn(C[C@]2(O)CCN(C(=O)[C@H](CO)CC3CCCCC3)CC2(C)C)c(=O)cc1-c1ccccc1 [Example 152, 1-(((S)-1-((S)-3-Cyclohexyl-2-(hydroxymethyl)propanoyl)-4-hydroxy-3,3-dimethylpiperidin-4-yl)methyl)-N,N-dimethyl-6-oxo-4-phenyl-1,6-dihydropyridine-3-carboxamide] | < 0.5 |
| C[C@H](CC1CCC1)C(=O)N1CC[C@@](O)(Cn2cc(C(=O)N(C)C)c(-c3ccccc3F)cc2=O)C2(CCCC2)C1 [Example 222, 1-(((S)-7-((R)-3-Cyclobutyl-2-methylpropanoyl)-10-hydroxy-7-azaspiro[4.5]decan-10-yl)methyl)-4-(2-fluorophenyl)-N,N-dimethyl-6-oxo-1,6-dihydropyridine-3-carboxamide] | < 0.5 |
| CC(C)N(C)C(=O)c1cn(C[C@]2(O)CCN(C(=O)[C@H](C)CC3CCCCC3)CC2(C)C)c(=O)cc1-c1ccccc1 [Example 120, 1-(((S)-1-((R)-3-Cyclohexyl-2-methylpropanoyl)-4-hydroxy-3,3-dimethylpiperidin-4-yl)methyl)-N-isopropyl-N-methyl-6-oxo-4-phenyl-1,6-dihydropyridine-3-carboxamide] | < 0.5 |
| C[C@H](CC(=O)N1CCC(O)(Cn2cc(-c3ccccc3)c(Cl)cc2=O)CC1)c1ccccc1 [Example 10, (R)-4-Chloro-1-((4-hydroxy-1 (3-phenylbutanoyl)piperidin-4-yl)methyl)-5-phenylpyridin-2(1H)-one] | 50 to 250 |
| C[C@H](CC(=O)N1CCC(O)(Cn2cc(C(=O)N3CCN(C(=O)OC(C)(C)C)CC3)c(-c3ccccc3)cc2=O)CC1)c1ccccc1 [Example 93, (R)-tert-Butyl 4-(1-((4-hydroxy-1-(3-phenylbutanoyl)piperidin-4-yl)methyl)-6-oxo-4-phenyl-1,6-dihydropyridine-3-carbonyl)piperazine-1-carboxylate] | 5 to 50 |
| C[C@H](CC(=O)N1CCC(O)(Cn2cc(C(=O)N(C)C)c(-c3ccccc3)cc2=O)CC1)c1ccccc1 [Example 95, (R)-1-((4-Hydroxy-1-(3-phenylbutanoyl)piperidin-4-yl)methyl)-N,N-dimethyl-6-oxo-4-phenyl-1,6-dihydropyridine-3-carboxamide] | 5 to 50 |
| C[C@H](CC(F)(F)F)C(=O)N1CC[C@@](O)(Cn2cc(C(=O)N(C)C)c(-c3ccccc3)cc2=O)C(C)(C)C1 [Example 204, 1-(((S)-4-Hydroxy-3,3-dimethyl-1-((R)-4,4,4-trifluoro-2-methylbutanoyl)piperidin-4-yl)methyl)-N,N-dimethyl-6-oxo-4-phenyl-1,6-dihydropyridine-3-carboxamide] | 0.5 to 5 |
| C[C@H](CC1CCCCC1)C(=O)N1CCC(O)(Cn2cc(C(=O)N(C)C)c(-c3ccsc3)cc2=O)C2(CCCC2)C1 (stereo partly drawn) [Example 155, 1-((7-((R)-3-Cyclohexyl-2-methylpropanoyl)-10-hydroxy-7-azaspiro[4.5]decan-10-yl)methyl)-N,N-dimethyl-6-oxo-4-(thiophen-3-yl)-1,6-dihydropyridine-3-carboxamide] | < 0.5 |
| C[C@H](CC1CCC1)C(=O)N1CC[C@@](O)(Cn2cc(C(=O)N(C)C)c(-c3ccccc3F)cc2=O)C(C)(C)C1 [Example 235, 1-(((S)-1-((R)-3-Cyclobutyl-2-methylpropanoyl)-4-hydroxy-3,3-dimethylpiperidin-4-yl)methyl)-4-(2-fluorophenyl)-N,N-dimethyl-6-oxo-1,6-dihydropyridine-3-carboxamide] | 0.5 to 5 |
| CC(C)N(C)C(=O)c1cn(CC2(O)CCN(C(=O)CCC3CCCCC3)CC2)c(=O)cc1-c1ccccc1 [Example 92, 1-((1-(3-Cyclohexylpropanoyl)-4-hydroxypiperidin-4-yl)methyl)-N-isopropyl-N-methyl-6-oxo-4-phenyl-1,6-dihydropyridine-3-carboxamide] | 0.5 to 5 |
